Test results taken from patent publication US20240092779A1, “USP1 INHIBITORS AND USES THEREOF” (Zentaur Therapeutics USA Inc., priority 2022, published 2024).

Tests used:
[1] = system: MDA-MB-436 cells; assay: CTG Protocol (MDA-MB-436 GI50), antiproliferative activity; format: cell-based, human; settings: Homo sapiens, 168 h; MDA-MB-436 cells (BRCA1 mutation), 7-day incubation, CellTiter-Glo
Procedure, shortened: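 BRCA1-mutant MDA-MB-436 cells were seeded at 1000 cells/well in DMEM, left overnight, then exposed to a 9-point, 3-fold compound series for 7 days at 37 °C, 5% CO2. Viability was read by CellTiter-Glo luminescence. % inhibition was plotted against concentration to derive GI50.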

[2] = molecular target: T1, recombinant USP1/UAF1 enzyme complex (Homo sapiens, UniProt O94782); assay: Enzyme assay: deubiquitinase fluorometric assay with ubiquitin-Rhodamine substrate; format: biochemical; settings: USP1/UAF1, Ub-Rho110 substrate, 2 hours preincubation, 1 hour reaction
T1 construct: purchased Biortus
Procedure, shortened: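 Recombinant human USP1/UAF1 (0.004 nM) preincubated with compounds (10 μM to 0.5 nM, 10 steps) for 2 h at room temperature in pH 7.5 HEPES buffer with EDTA, DTT, BSA.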

[3] = Liver microsomal stability (HLM); format: in vitro ADME; settings: human, liver microsomes, human liver microsomes 0.5 mg/mL, 1 μM compound, NADPH

T1 sequence (O94782 whole entry): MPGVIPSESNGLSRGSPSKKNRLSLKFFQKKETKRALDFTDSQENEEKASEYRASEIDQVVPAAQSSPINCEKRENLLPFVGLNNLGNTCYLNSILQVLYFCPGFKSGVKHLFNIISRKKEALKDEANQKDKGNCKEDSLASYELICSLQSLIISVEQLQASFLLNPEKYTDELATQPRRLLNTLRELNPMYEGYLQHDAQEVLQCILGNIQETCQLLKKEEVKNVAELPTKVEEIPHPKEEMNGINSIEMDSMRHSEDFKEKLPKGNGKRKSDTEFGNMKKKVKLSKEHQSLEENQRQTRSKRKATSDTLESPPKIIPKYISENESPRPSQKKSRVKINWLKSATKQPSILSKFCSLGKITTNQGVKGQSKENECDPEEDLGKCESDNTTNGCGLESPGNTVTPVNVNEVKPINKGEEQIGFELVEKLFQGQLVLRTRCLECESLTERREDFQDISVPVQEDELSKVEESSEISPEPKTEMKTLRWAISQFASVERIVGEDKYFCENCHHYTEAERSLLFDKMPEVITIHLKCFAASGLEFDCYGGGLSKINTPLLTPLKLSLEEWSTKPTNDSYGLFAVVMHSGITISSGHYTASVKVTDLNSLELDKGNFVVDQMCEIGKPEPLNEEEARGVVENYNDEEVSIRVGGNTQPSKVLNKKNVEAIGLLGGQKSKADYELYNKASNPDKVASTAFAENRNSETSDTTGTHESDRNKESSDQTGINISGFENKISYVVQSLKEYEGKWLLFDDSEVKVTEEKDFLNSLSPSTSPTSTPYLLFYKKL
T1 sequence (Q8TAF3 whole entry partner): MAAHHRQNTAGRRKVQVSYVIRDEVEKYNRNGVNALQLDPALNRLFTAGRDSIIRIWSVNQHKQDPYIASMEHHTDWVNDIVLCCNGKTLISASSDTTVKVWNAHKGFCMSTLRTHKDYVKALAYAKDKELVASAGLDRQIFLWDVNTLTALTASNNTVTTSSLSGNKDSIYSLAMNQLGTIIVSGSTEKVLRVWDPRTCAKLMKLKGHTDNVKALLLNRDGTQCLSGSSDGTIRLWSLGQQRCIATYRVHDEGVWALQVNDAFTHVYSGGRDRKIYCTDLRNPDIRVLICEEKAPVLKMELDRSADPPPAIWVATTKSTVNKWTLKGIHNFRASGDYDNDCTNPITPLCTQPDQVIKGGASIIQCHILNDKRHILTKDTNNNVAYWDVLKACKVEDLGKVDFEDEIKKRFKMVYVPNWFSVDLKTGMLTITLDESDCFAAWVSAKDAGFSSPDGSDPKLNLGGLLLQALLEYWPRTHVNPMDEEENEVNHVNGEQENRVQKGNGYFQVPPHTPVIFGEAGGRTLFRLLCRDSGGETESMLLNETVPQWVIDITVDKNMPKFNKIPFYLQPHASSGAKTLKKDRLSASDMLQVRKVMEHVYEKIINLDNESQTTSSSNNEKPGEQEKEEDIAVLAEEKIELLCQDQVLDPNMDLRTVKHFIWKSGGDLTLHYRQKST

GI50 [1] [nM]	IC50 [2] [nM]	microsomal CLint at 1 μM [3] [µL/min/mg]	Structure (SMILES)
10 to 100	10 to 100	< 10	COc1ncnc(C2CC2)c1-c1ncc2ccc(=O)n(Cc3ccc(-c4nc(C(F)(F)F)cn4C(C)C)cc3)c2c1F [Compound I-27, 7-(4-cyclopropyl-6-methoxypyrimidin-5-yl)-8-fluoro-1-({4-[1-isopropyl-4-(trifluoromethyl)imidazol-2-yl]phenyl}methyl)-1,6-naphthyridin-2-one]
10 to 100	10 to 100	10 to 50	COc1ncnc(C2CC2)c1-c1ncc2ccc(=O)n(Cc3ccc(-c4cccc(C(F)(F)F)n4)cc3)c2n1 [Compound I-36, 2-(4-cyclopropyl-6-methoxypyrimidin-5-yl)-8-({4-[6-(trifluoromethyl)pyridin-2-yl]phenyl}methyl)pyrido[2,3-d]pyrimidin-7-one]
< 10	–	< 10	COc1ncnc(C2CC2)c1-c1nc(C)c2cc(-c3cnn(C)c3)c(=O)n(Cc3ccc(-c4nc(C(F)(F)F)cn4C4CC4)cc3)c2n1 [Compound I-148, 8-({4-[1-Cyclopropyl-4-(Trifluoromethyl)Imidazol-2-Yl]Phenyl}Methyl)-2-(4-Cyclopropyl-6-Methoxypyrimidin-5-Yl)-4-Methyl-6-(1-Methylpyrazol-4-Yl)Pyrido[2,3-d]Pyrimidin-7-One]
10 to 100	–	< 10	COc1ncnc(C2CC2)c1-c1ncc2cc(-c3cn(C)nn3)c(=O)n(Cc3ccc(-c4nc(C(F)(F)F)cn4C4CC4)cc3)c2n1 [Compound I-150]
10 to 100	–	< 10	COc1ncnc(C2CC2)c1-c1ncc2cc(-c3cnn(C)n3)c(=O)n(Cc3ccc(-c4nc(C(F)(F)F)cn4C4CC4)cc3)c2n1 [Compound I-151]
< 10	–	< 10	COc1cc(Cn2c(=O)ccc3c(C)nc(-c4c(OC)ncnc4C4CC4)nc32)ccc1-c1nc(C(F)(F)F)cn1C1CC1 [Compound I-152, 8-({4-[1-cyclopropyl-4-(trifluoromethyl)imidazo]-2-yl]-3-methoxyphenylmethyl)-2-(4-cyclopropyl-6-methoxypyrimidin-5-yl)-4-methylpyrido[2,3-d]pyrimidin-7-one]
10 to 100	–	< 10	COc1ncnc(C2CC2)c1-c1ncc2cc(-c3ncn(C)n3)c(=O)n(Cc3ccc(-c4nc(C(F)(F)F)cn4C4CC4)cc3)c2n1 [Compound I-153, 8-({4-[1-cyclopropyl-4-(trifluoromethyl)imidazo]-2-yl]phenylmethyl)-2-(4-cyclopropyl-6-methoxypyrimidin-5-yl)-6-(1-methyl-1,2,4-triazol-3-yl)pyrido[2,3-d]pyrimidin-7-one]
< 10	–	< 10	COc1ncnc(C2CC2)c1-c1ncc2cc(-c3c(C)noc3C)c(=O)n(Cc3ccc(-c4nc(C(F)(F)F)cn4C4CC4)cc3)c2n1 [Compound I-155]
10 to 100	–	< 10	COc1ncnc(C2CC2)c1-c1ncc2cc(-c3ncnn3C)c(=O)n(Cc3ccc(-c4nc(C(F)(F)F)cn4C4CC4)cc3)c2n1 [Compound I-156]
< 10	–	< 10	COc1ncnc(C2CC2)c1-c1nc(C)c2cc(C3CCN(C)CC3)c(=O)n(Cc3ccc(-c4nc(C(F)(F)F)cn4C4CC4)cc3)c2n1 [Compound I-157, 8-({4-[1-Cyclopropyl-4-(Trifluoromethyl)Imidazol-2-Yl]Phenyl}Methyl)-2-(4-Cyclopropyl-6-Methoxypyrimidin-5-Yl)-4-Methyl-6-(1-Methylpiperidin-4-Yl)Pyrido[2,3-d]Pyrimidin-7-One]
< 10	–	< 10	COc1cc(Cn2c(=O)ccc3c(C)nc(-c4c(OC)ncnc4C4CC4)nc32)cc(F)c1-c1nc(C(F)(F)F)cn1C1CC1 [Compound I-163]
10 to 100	–	< 10	COc1ncnc(C2CC2)c1-c1nc(C)c2cc(-c3ncnn3C)c(=O)n(Cc3ccc(-c4nc(C(F)(F)F)cn4C4CC4)cc3)c2n1 [Compound I-167, 8-({4-[1-Cyclopropyl-4-(Trifluoromethyl)Imidazol-2-Yl]Phenyl}Methyl)-2-(4-Cyclopropyl-6-Methoxypyrimidin-5-Yl)-4-Methyl-6-(2-Methyl-1,2,4-Triazol-3-Yl)Pyrido[2,3-d]Pyrimidin-7-One]
10 to 100	–	< 10	COc1ncnc(C2CC2)c1-c1ncc2cc(-c3ncnn3C)c(=O)n(Cc3ccc(-c4nc(C(F)(F)F)cn4C(C)C)cc3)c2n1 [Compound I-168, 2-(4-Cyclopropyl-6-Methoxypyrimidin-5-Yl)-8-({4-[1-Isopropyl-4-(Trifluoromethyl)Imidazol-2-Yl]Phenyl}Methyl)-6-(2-Methyl-1,2,4-Triazol-3-Yl)Pyrido[2,3-d]Pyrimidin-7-One]
